Assay results: ChEMBL document CHEMBL5038665, “Identification of the Benzoimidazole Compound as a Selective FLT3 Inhibitor by Cell-Based High-Throughput Screening of a Diversity Library” (J Med Chem, 2022)
Activity calls are given as the source filed them. No cut-off for these calls is given here.

Key:
[1] = Antiproliferative activity against mouse Ba/F3 FLT3-ITD cells assessed as reduction in cell viability measured after 72 hrs by MTS assay; assay type: functional, cell-based
[2] = Toxicity in Balb/c mouse implanted with mouse Ba/F3 FLT3-ITD cells assessed as inflammatory cell infiltration in spleen at 30 to 100 mg/kg, po administered for 14 days; assay type: organism-based, BaF3; settings: in vivo, 336 h, time 14 day
[3] = Induction of apoptosis in mouse Ba/F3 FLT3-ITD cells assessed as survival population at 0.1 uM measured after 48 hrs by Annexin V-FITC/propidium iodide staining based flow cytometry(reference value: 93.99 %); assay type: functional
[4] = Antiproliferative activity against mouse BaF3 cells expressing wild type FLT3 assessed as reduction in cell viability measured after 72 hrs by MTS assay; assay type: toxicity, cell-based
[5] = system: MV4-11; experiment: Antitumor activity against human MV4-11 cells xenografted in Balb/c mouse assessed as tumor growth inhibition at 100 mg/kg, po administered for 28 days; assay type: functional, organism-based; settings: time 28.0 day
[6] = system: MOLM-13; experiment: Induction of apoptosis in human MOLM-13 cells assessed as survival population at 1 uM measured after 48 hrs by Annexin V-FITC/propidium iodide staining based flow cytometry(reference value: 97.35 %); assay type: functional
[7] = AUC (0-t) in 12 hrs fasted Sprague-Dawley rat at 15 mg/kg, po measured upto 24 hrs by LC-MS analysis; assay type: ADME, organism-based; parameters: route oral, dose 15 mg/kg, time <=24; settings: in vivo
[8] = AUC (0-t) in 12 hrs fasted Sprague-Dawley rat at 2 mg/kg, iv measured upto 24 hrs by LC-MS analysis; assay type: ADME, organism-based; parameters: route intravenous, dose 2 mg/kg, time <=24; settings: in vivo
[9] = Antitumor activity against mouse Ba/F3 FLT3-ITD cells implanted in Balb/c mouse assessed as increase in survival time at 60 mg/kg, po administered every 24 hrs (Rvb=14 days); assay type: functional
[10] = system: MV4-11; experiment: Antitumor activity against human MV4-11 cells xenografted in Balb/c mouse assessed as reduction in tumor weight at 100 mg/kg, po administered for 28 days; assay type: functional, organism-based; settings: time 28.0 day
[11] = system: MOLM-13; experiment: Induction of apoptosis in human MOLM-13 cells assessed as survival population at 0.5 uM measured after 48 hrs by Annexin V-FITC/propidium iodide staining based flow cytometry(reference value: 97.35 %); assay type: functional
[12] = Half life in 12 hrs fasted Sprague-Dawley rat at 15 mg/kg, po measured upto 24 hrs by LC-MS analysis; assay type: ADME, organism-based; settings: in vivo
[13] = target: Receptor-type tyrosine-protein kinase FLT3 (Homo sapiens, UniProt P36888, ITD); experiment: Inhibition of FLT3-ITD mutant (unknown origin)
Sequence of Receptor-type tyrosine-protein kinase FLT3 (P36888 whole entry, looked up, stated change not applied): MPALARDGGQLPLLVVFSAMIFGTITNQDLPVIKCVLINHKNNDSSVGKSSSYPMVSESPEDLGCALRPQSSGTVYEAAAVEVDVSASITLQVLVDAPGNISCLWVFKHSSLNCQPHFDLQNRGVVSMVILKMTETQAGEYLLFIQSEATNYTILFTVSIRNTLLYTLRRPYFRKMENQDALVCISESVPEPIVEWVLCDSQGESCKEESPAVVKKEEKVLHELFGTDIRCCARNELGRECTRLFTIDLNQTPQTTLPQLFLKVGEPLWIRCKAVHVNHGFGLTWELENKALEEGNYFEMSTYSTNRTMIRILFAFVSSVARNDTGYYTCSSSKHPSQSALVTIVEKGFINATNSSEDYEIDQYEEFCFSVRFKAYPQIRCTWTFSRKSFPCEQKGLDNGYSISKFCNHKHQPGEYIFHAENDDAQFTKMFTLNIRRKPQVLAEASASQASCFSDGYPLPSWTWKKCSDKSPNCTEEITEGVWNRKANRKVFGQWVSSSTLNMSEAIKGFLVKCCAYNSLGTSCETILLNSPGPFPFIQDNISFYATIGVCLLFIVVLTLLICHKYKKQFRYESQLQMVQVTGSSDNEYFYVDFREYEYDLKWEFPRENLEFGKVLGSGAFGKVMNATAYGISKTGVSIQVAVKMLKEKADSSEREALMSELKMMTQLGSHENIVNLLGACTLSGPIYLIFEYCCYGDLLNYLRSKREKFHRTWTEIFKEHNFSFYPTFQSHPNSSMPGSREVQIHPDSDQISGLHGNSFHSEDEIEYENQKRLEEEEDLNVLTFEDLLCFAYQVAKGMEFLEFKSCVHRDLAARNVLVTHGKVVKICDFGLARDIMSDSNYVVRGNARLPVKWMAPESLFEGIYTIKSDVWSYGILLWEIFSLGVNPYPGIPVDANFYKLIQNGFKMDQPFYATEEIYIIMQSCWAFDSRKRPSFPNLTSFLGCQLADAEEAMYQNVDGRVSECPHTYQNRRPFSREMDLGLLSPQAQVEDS

[14] = system: MV4-11; experiment: Antiproliferative activity against human MV4-11 cells harboring FLT3-ITD mutant assessed as reduction in cell viability measured after 72 hrs ny MTS assay; assay type: functional, cell-based; settings: MV4-11, 72 h
[15] = Induction of apoptosis in mouse BaF3 cells assessed as survival population at 0.5 uM measured after 48 hrs by Annexin V-FITC/propidium iodide staining based flow cytometry(reference value: 96.35 %); assay type: toxicity, cell-based; settings: read-out: Activity
[16] = Toxicity in Balb/c mouse implanted with mouse Ba/F3 FLT3-ITD cells assessed as body weight loss at 30 to 100 mg/kg, po administered for 14 days; assay type: organism-based, BaF3; settings: in vivo, 336 h, time 14 day
[17] = Antiproliferative activity against human ML-1 cells expressing wild type FLT3 assessed as reduction in cell viability measured after 72 hrs by MTS assay; assay type: functional, cell-based; settings: ML1, 72 h
[18] = Clearance in 12 hrs fasted Sprague-Dawley rat at 2 mg/kg, iv measured upto 24 hrs by LC-MS analysis; assay type: ADME, organism-based; settings: in vivo
[19] = system: MV4-11; experiment: Induction of apoptosis in human MV4-11 cells assessed as survival population at 0.1 uM measured after 48 hrs by Annexin V-FITC/propidium iodide staining based flow cytometry(reference value: 98.01 %); assay type: functional
[20] = Induction of apoptosis in mouse BaF3 cells assessed as survival population at 1 uM measured after 48 hrs by Annexin V-FITC/propidium iodide staining based flow cytometry(reference value: 96.35 %); assay type: toxicity, cell-based; settings: read-out: Activity
[21] = system: MOLM-13; experiment: Induction of apoptosis in human MOLM-13 cells assessed as survival population at 0.1 uM measured after 48 hrs by Annexin V-FITC/propidium iodide staining based flow cytometry(reference value: 97.35 %); assay type: functional
[22] = target: Fibroblast growth factor receptor 1 (Homo sapiens, UniProt P11362); experiment: Inhibition of FGFR1 (unknown origin)
Sequence of Fibroblast growth factor receptor 1 (P11362 whole entry): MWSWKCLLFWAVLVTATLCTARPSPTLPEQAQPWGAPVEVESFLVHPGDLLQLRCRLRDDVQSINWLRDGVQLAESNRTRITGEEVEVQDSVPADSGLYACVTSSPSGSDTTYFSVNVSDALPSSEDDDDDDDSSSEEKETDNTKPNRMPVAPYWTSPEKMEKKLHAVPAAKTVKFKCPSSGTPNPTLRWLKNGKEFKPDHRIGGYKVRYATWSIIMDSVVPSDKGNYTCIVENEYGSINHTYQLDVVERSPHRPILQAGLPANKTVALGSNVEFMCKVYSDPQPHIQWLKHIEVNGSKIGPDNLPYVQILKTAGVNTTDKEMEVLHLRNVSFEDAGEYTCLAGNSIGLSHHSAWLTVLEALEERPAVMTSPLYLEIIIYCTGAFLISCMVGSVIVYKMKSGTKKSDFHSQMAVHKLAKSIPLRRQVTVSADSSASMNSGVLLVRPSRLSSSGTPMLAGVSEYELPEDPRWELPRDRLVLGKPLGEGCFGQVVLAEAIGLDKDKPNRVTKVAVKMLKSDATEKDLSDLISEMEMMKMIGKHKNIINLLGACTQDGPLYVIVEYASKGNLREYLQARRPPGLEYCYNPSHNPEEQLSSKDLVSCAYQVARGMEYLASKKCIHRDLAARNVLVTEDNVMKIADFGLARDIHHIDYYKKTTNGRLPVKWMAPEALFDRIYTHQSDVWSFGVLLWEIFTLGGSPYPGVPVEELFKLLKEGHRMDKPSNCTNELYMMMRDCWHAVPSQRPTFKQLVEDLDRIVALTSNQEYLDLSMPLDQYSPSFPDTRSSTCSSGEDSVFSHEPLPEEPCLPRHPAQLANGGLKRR

[23] = Oral bioavailability in 12 hrs fasted Sprague-Dawley rat at 15 mg/kg by LC-MS analysis; assay type: ADME, organism-based; settings: in vivo
[24] = Induction of apoptosis in mouse Ba/F3 FLT3-ITD cells assessed as survival population at 0.5 uM measured after 48 hrs by Annexin V-FITC/propidium iodide staining based flow cytometry(reference value: 93.99 %); assay type: functional
[25] = target: Serine/threonine-protein kinase B-raf (Homo sapiens, UniProt P15056); experiment: Inhibition of BRAF (unknown origin)
Sequence of Serine/threonine-protein kinase B-raf (P15056 whole entry): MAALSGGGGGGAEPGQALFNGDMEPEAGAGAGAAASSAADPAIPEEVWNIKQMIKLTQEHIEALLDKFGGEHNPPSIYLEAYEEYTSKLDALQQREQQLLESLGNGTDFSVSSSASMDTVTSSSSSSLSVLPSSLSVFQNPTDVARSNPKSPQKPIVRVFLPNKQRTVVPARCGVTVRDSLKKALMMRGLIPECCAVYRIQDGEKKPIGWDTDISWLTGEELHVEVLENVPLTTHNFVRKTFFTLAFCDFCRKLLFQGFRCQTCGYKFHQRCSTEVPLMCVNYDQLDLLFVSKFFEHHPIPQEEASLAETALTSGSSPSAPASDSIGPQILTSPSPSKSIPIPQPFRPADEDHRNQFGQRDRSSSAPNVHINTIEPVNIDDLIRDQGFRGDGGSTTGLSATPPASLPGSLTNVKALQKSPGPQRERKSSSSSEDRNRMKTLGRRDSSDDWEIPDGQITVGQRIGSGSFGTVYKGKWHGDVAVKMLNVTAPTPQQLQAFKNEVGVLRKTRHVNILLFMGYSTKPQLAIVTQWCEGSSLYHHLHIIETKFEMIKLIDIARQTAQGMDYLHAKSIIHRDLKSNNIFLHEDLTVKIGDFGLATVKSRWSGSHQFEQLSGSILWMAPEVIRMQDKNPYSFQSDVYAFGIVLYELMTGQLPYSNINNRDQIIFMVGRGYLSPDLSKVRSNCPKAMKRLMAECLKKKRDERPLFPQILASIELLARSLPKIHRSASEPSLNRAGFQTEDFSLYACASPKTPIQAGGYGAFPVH

[26] = Half life in 12 hrs fasted Sprague-Dawley rat at 2 mg/kg, iv measured upto 24 hrs by LC-MS analysis; assay type: ADME, organism-based; settings: in vivo
[27] = target: Mast/stem cell growth factor receptor Kit (Homo sapiens, UniProt P10721); experiment: Inhibition of KIT (unknown origin)
Sequence of Mast/stem cell growth factor receptor Kit (P10721 whole entry): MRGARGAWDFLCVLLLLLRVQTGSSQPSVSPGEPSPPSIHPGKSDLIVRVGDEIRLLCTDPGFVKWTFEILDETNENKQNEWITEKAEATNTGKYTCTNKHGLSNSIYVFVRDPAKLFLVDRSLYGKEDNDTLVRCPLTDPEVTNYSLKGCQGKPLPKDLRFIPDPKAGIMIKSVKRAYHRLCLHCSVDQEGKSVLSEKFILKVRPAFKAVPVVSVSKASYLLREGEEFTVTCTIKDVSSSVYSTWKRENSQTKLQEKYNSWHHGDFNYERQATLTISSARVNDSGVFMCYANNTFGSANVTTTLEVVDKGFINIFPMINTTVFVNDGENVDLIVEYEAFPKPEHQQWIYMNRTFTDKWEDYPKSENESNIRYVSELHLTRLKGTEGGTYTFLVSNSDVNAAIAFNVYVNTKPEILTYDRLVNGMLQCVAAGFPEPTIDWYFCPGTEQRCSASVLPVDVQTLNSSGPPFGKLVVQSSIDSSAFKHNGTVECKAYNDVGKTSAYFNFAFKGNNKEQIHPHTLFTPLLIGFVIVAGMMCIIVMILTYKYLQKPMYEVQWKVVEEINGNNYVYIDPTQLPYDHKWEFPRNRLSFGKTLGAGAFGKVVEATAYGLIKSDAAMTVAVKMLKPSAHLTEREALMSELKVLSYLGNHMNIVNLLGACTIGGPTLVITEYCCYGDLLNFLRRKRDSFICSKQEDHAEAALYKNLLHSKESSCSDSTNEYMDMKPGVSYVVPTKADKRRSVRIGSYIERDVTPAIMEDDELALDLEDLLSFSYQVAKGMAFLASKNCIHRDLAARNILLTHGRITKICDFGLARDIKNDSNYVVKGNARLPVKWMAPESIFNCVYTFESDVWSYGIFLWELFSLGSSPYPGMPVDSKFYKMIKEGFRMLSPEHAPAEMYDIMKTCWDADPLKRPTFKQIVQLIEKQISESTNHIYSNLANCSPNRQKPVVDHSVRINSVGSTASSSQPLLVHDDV

[28] = system: MV4-11; experiment: Induction of apoptosis in human MV4-11 cells assessed as survival population at 1 uM measured after 48 hrs by Annexin V-FITC/propidium iodide staining based flow cytometry(reference value: 98.01 %); assay type: functional
[29] = Clearance in 12 hrs fasted Sprague-Dawley rat at 15 mg/kg, po measured upto 24 hrs by LC-MS analysis; assay type: ADME, organism-based; settings: in vivo

For `COc1cc(CNc2ccc3c(c2)ncn3-c2ccccc2)ccc1OCCO`, the IC50 [1] was 75.4 nM, the Activity [2] was “Non-Toxic” and the Activity [3] was 78.45%. For the same compound, the IC50 at 72 h [4] was over 400 nM, the Activity [5] was “Active” and the Activity [6] was 65.52%. The AUC(0-t) at 24 h [7] was 2890 ng·h/mL, the AUC(0-t) at 24 h [8] was 800 ng·h/mL and the Time [9] was 22 days. The Activity [10] was “Active”, the Activity [11] was 68.85% and the half-life [12] was 4.28 h. It also gave an IC50 [13] of 70 nM, an IC50 [14] of 165 nM and a viability at 48 h, 0.5 µM [15] of 96.7%. For the same compound, the Activity [16] was “Non-Toxic”, the IC50 [17] was over 50000 nM and the clearance [18] was 43.2 mL/min/kg. For the same compound, the Activity [19] was 94.26%, the viability at 48 h, 1 µM [20] was 97.7% and the Activity [21] was 83.61%. For the same compound, the IC50 [22] was over 1000 nM, the bioavailability [23] was 48.2% and the Activity [24] was 47.99%. For the same compound, the IC50 [25] was over 1000 nM, the half-life [26] was 0.31 h and the IC50 [27] was 160 nM. It also gave an Activity [28] of 68.54% and a CL/F [29] of 84.7 mL/min/kg.
